Data taken from patent US20180370922A1, “ANTI-INFLAMMATORY 6-PHENOXYPYRIMIDINE DERIVATIVES, PROCESS FOR THEIR PREPARATION AND PHARMACEUTICAL COMPOSITION CONTAINING THEM” (priority 2017, published 2018).

Columns and labels:
[1] = system: LPS-induced NO production in RAW 264.7 macrophages; assay: Measurement of nitrite (Griess test) as a measure of NO production; format: cell-based, murine; settings: FIG. 2
Method: The concentration of nitrite accumulated in the culture medium was measured by the Griess test as a measure of nitric oxide (NO) production. L-NIL was used as the positive control.

[2] = system: LPS-induced PEG2 production; assay: Measurement of PEG2 production; format: cell-based; settings: FIG. 3
iNOS mRNA = iNOS mRNA expression level; format: cell-based; settings: FIG. 5A
Method: Western blotting was conducted to identify the mechanism of the NO and PGE2 production inhibiting activity of the compound of the present invention. The inhibition of iNOS and COX-2 protein production and mRNA upregulation was tested.

TNF-α = assay: Cytokine production inhibiting activity, TNF-α; format: cell-based; settings: at a concentration of 12 μM, FIG. 6
Method: (§1) The inhibitory activity for the proinflammatory cytokines TNF-α, IL-1β and IL-6 was tested for the compound of the present invention.

IL-6 = assay: Cytokine production inhibiting activity, IL-6; format: cell-based; settings: at a concentration of 12 μM, FIG. 6
Method: as §1

For `COc1ccc(Oc2nc(Nc3ccc(N4CCOCC4)cc3)ncc2/N=C/c2cc(OC)cc(OC)c2)cc1` [Example 21, (E)-5-((3,5-dimethoxybenzylidene)amino)-4-(4-methoxyphenoxy)-N-(4-morpholinophenyl)pyrimidin-2-amine], the “inhibition of LPS-induced NO production” value ([1]; RAW 264.7 macrophages, LPS 24 hours, Griess test) was “inhibit LPS-induced NO production in a dose-dependent manner”, the “NO inhibitory activity as compared to the positive control L-NIL” value ([1]; relative to L-NIL) was 2 times and the “inhibition of LPS-induced PEG2 production” value [2] was “inhibit LPS-induced PEG2 production in a dose-dependent manner”. The “inhibition of LPS-induced upregulation of iNOS mRNA” value (iNOS mRNA) was “inhibit LPS-induced upregulation of iNOS mRNA”, the “inhibition of TNF-α production” value (TNF-α) was “inhibit the production of TNF-α” and the “inhibition of IL-6 production” value (IL-6) was “inhibit the production of TNF-α and IL-6”. The “cell viability (toxicity)” value (RAW 264.7 macrophages) was “little toxicity”.
